The values that follow come from PMC7933930, “Development of a small molecule that corrects misfolding and increases secretion of Z α1‐antitrypsin” (EMBO Molecular Medicine, 2021).

One assay deals with Z α1‐antitrypsin (Homo sapiens, UniProt P01009, E366K). The assay is described as follows: TR‐FRET immunoassay (2C1 antibody) of Z α1‐antitrypsin polymerisation, 37°C, 72 h. The assay is classed as biochemical. Set-up: purified from the plasma of Z α1‐antitrypsin homozygotes; from tissue; host or cells: human plasma of Z α1-antitrypsin homozygotes. The following applies: 5 nM Z α1‐antitrypsin, 37°C, 72 h; read-out: pIC50, blocking polymerisation in the TR‐FRET immunoassay (converted). The text has this: Z α1‐antitrypsin is a conformationally dynamic molecule (Lomas et al, 1992; Knaupp et al, 2010) that represents a non‐classical target for drug discovery. A cell‐free assay approach to hit finding was undertaken so as not to miss compounds that bind α1‐antitrypsin and block polymerisation but lack the molecular properties to cross cell membranes. This comprised the following: (i) an encoded library technology (ELT) screen (Goodnow et al, 2017) of a library with a nominal diversity of 2 × 10^12 unique components to identify binders to Z α1‐antitrypsin and (ii) a high‐throughput screen (HTS) of the GSK compound collection (~ 1.7 million compounds) for small molecules that could block polymerisation of Z α1‐antitrypsin. […] In the HTS assay, polymerisation of purified Z α1‐antitrypsin was induced by incubation at 37°C for 72 h in the presence of test compounds, with end‐point quantification of polymers performed using the polymer‐specific monoclonal antibody, 2C1 (Miranda et al, 2010) in a TR‐FRET‐based immunoassay. […]
Chain of Z α1‐antitrypsin (P01009 25-418 E366K): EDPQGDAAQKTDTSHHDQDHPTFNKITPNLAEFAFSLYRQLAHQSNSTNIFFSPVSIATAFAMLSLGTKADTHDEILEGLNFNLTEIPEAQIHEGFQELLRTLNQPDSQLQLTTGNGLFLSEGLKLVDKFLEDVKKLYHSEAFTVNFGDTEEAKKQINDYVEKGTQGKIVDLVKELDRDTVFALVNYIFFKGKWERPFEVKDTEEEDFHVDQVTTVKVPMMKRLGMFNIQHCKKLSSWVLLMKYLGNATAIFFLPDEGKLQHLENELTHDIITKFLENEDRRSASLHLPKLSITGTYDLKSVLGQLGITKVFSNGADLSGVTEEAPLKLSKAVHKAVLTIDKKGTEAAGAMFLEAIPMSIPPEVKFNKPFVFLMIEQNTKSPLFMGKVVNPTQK
An antibody‐based time‐resolved fluorescence resonance energy transfer (TR‐FRET) assay was developed to monitor the polymerisation of 5 nM Z α1‐antitrypsin following incubation with varying concentrations of compounds at 37°C for 72 h. This assay used the 2C1 monoclonal antibody (1.25 nM) that is specific to pathological polymers of α1‐antitrypsin (Miranda et al, 2010), a polyclonal antibody (1/320 dilution) that binds to all forms of α1‐antitrypsin (Abcam product 9373), an anti‐mouse IgG (1.5 nM) labelled with fluorescence donor Eu‐W1024 (Perkin Elmer product AD0076) and an anti‐rabbit IgG (14.3 nM labelled with acceptor [APC]). […] The TR‐FRET signal was read on an Envision plate reader (PerkinElmer), by excitation of Europium at 337 nm and detection of emission at 665 and 620 nm.

The subject of assay [1] is Z α1‐antitrypsin polymers. Set-up: method as in Hidvegi et al, 2010. The note with it: Z α1‐antitrypsin transgenic mice, 2 weeks of dosing; ref Hidvegi et al, 2010; cited from earlier work.
For assay [2], the target named is bovine α‐chymotrypsin (bovine).

Chain of wild‐type M α1‐antitrypsin, purified from plasma (P01009 25-418): as the sequence (P01009 25-418 E366K) above, with K342E counted along it

Regarding `CCCC(NC(=O)c1ccc2cc[nH]c2c1)C(O)c1ccccc1` (stereo not drawn) [GSK425], the IC50 at Z α1‐antitrypsin was 316 nM.

For the molecule `NC(=O)N1c2ccccc2C=Cc2ccccc21` [carbamazepine], the “effect on liver polymer” value in assay [1] is “profound effects on liver polymer”.

In assay [2], “wild‐type M α1‐antitrypsin, purified from plasma (from UniProt P01009 25-418) (natural protein)” registered a protease inhibitory activity (stoichiometry of inhibition, residual chymotrypsin activity) after pre‐incubation with 50 µM GSK716 greater than 98%.
